According to patent publication US8106055B2, “Substituted amide compounds” (Gruenenthal GmbH, priority 2007, dated 2012):

What follows are molecules tested against T1, human bradykinin 1 receptor (B1R) (Homo sapiens, UniProt P46663) (assay: Functional investigation on the human bradykinin 1 receptor (B1R), Ca2+ FLIPR assay in CHO K1 hB1R cells). Details: B1R antagonism human; test substance 10 μM; Ca2+ FLIPR, CHO K1 hB1R cells.
T1 construct: expressed in transfected cells; host or cells: CHO K1 cells
T1 sequence (P46663 1-353): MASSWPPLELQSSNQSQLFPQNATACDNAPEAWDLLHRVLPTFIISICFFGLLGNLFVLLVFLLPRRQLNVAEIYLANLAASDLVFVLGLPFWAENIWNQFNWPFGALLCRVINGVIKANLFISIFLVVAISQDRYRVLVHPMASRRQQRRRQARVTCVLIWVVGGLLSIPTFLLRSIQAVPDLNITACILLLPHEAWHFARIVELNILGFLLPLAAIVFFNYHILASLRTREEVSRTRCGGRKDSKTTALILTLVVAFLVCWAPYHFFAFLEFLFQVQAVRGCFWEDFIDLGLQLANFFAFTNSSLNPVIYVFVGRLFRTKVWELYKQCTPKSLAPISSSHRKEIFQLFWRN
Format: cell-based
Outline: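 Stably transfected CHO K1 cells loaded with Fluo-4; FLIPR Ca2+ fluorescence peak (ex 488/em 540 nm). Compound added first (agonism vs Lys-Des-Arg9-bradykinin ≥50 nM human, Des-Arg9-bradykinin 10 μM rat), then after 10-20 min agonist at EC80; antagonism as % inhibition, IC50 from concentration series, n=2-3, N≥2.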

SMILES | B1R Ant. h [10 μM] % Inhibition [%]
COc1ccc(S(=O)(=O)N2CCCCC2COCC(=O)NC2CCC(C(c3cccs3)N(C)C)CC2)cc1OC (stereo not shown) [Example 261] | −28
COc1ccc(S(=O)(=O)N2CCC(OCC(=O)NCCC3CCC(C(c4cccc(F)c4)N(C)C)CC3)C2)cc1OC (stereo not shown) [Example 262] | −6
CN(C)C(c1ccc(Cl)cc1)C1CCC(CNC(=O)COCCN(C)S(=O)(=O)c2ccc(F)cc2)CC1 (stereo not shown) [Example 263] | 18
Cc1cc(C)c(S(=O)(=O)N2CCC(OCC(=O)NCCC3CCC(C(c4cccc(F)c4)N(C)C)CC3)C2)c(C)c1 (stereo not shown) [Example 264] | 77
COc1cc(C)c(S(=O)(=O)N2CCC(OCC(=O)NCC3CCC(C(c4cccc(F)c4)N(C)C)CC3)C2)c(C)c1 (stereo not shown) [Example 265] | 93
CN(C)C(c1cccc(F)c1)C1CCC(NC(=O)COCC2CCCN(S(=O)(=O)c3ccccc3)C2)CC1 (stereo not shown) [Example 266] | 4
CN(C)C(c1ccc(F)cc1)C1CCC(CNC(=O)COCC2CCCN2S(=O)(=O)c2ccc(Cl)c(Cl)c2)CC1 (stereo not shown) [Example 267] | 68
COc1ccc(S(=O)(=O)N2CCCC2COCC(=O)NC2CCC(C(c3cccc(F)c3)N(C)C)CC2)cc1 (stereo not shown) [Example 268] | 7
CN(C)C(c1ccc(Cl)cc1)C1CCC(CNC(=O)COC2CCCCC2N(C)S(=O)(=O)c2ccc(Cl)c(Cl)c2)CC1 (stereo not shown) [Example 269] | 7
CN(C)C(c1cccc(F)c1)C1CCC(NC(=O)COC2CCN(S(=O)(=O)c3ccccc3)C2)CC1 (stereo not shown) [Example 271] | −7
Cc1ccc(S(=O)(=O)N2CCC(OCC(=O)NCCC3CCC(C(c4cccs4)N(C)C)CC3)C2)cc1 (stereo not shown) [Example 272] | 20
Cc1ccc(S(=O)(=O)N(C)CCOCC(=O)NCC2CCC(C(c3ccc(Cl)cc3)N(C)C)CC2)cc1 (stereo not shown) [Example 273] | 25
CN(C)C(c1ccc(Cl)cc1)C1CCC(CCNC(=O)COCCN(C)S(=O)(=O)c2c(Cl)cccc2Cl)CC1 (stereo not shown) [Example 274] | 100
CN(C)C(c1cccc(F)c1)C1CCC(CNC(=O)COC2CCN(S(=O)(=O)c3ccc(F)cc3)C2)CC1 (stereo not shown) [Example 275] | 15
CN(C)C(c1cccs1)C1CCC(CNC(=O)COC2CCN(S(=O)(=O)c3ccccc3)CC2)CC1 (stereo not shown) [Example 276] | −12
CN(C)C(c1cccc(F)c1)C1CCC(NC(=O)COC2CCCN(S(=O)(=O)c3ccccc3)C2)CC1 (stereo not shown) [Example 277] | 4
CN(CCOCC(=O)NC1CCC(C(c2ccccc2)N2CCCC2)CC1)S(=O)(=O)c1c(Cl)cc(Cl)cc1Cl (stereo not shown) [Example 606, 2-{2-[methyl-(2,4,6-trichlorobenzenesulfonyl)-amino]-ethoxy}-N-[4-(phenylpyrrolidin-1-yl-methyl)-cyclohexyl]-acetamide] | 77
CN(C)C(c1ccccc1)C1CCC(NC(=O)COCC2CCCN2S(=O)(=O)c2c(Cl)cc(Cl)cc2Cl)CC1 (stereo not shown) [Example 611, N-[4-(Dimethylaminophenylmethyl)-cyclohexyl]-2-[1-(2,4,6-trichlorobenzenesulfonyl)-pyrrolidin-2-ylmethoxy]-acetamide] | 97
CN(C)C(c1ccccc1)C1CCC(NC(=O)COCC2CCCN2S(=O)(=O)c2c(Cl)cc(Cl)cc2Cl)CC1 (stereo not shown) [Example 612, N-[4-(Dimethylaminophenylmethyl)-cyclohexyl]-2-[1-(2,4,6-trichlorobenzenesulfonyl)-pyrrolidin-2-ylmethoxy]-acetamide] | 103
CN(C)C(c1ccccc1)C1CCC(NC(=O)COCC2CCCN2S(=O)(=O)c2c(Cl)cc(Cl)cc2Cl)CC1 (stereo not shown) [Example 613, N-[4-(Dimethylaminophenylmethyl)-cyclohexyl]-2-[1-(2,4,6-trichlorobenzenesulfonyl)-pyrrolidin-2-ylmethoxy]-acetamide] | 66
CN(C)C(c1ccccc1)C1CCC(CNC(=O)COCCN(C)S(=O)(=O)c2c(Cl)cc(Cl)cc2Cl)CC1 (stereo not shown) [Example 614, N-[4-(dimethylaminophenylmethyl)-cyclohexylmethyl]-2-{2-[(2,4,6-trichlorobenzenesulfonyl)-methylamino]-ethoxy}-acetamide] | 102

Same assay, conditions: CHO-K1, B1R antagonism human; test substance 10 μM; Ca2+ FLIPR, CHO K1 hB1R cells; read-out: B1R Ant. h [10 μM] % Inhibition

SMILES | inhibition at 10 µM [%]
O=C(COCCN(C1CC1)S(=O)(=O)c1c(Cl)cc(Cl)cc1Cl)NC1CCC(C(c2ccccc2)N2CCCC2)CC1 (stereo not shown) [Example 603, 2-{2-[cyclopropyl-(2,4,6-trichlorobenzenesulfonyl)-amino]-ethoxy}-N-[4-(phenylpyrrolidin-1-ylmethyl)-cyclohexyl]-acetamide] | 86
CN(C)C(c1ccccc1)C1CCC(NC(=O)COC2CCCN(S(=O)(=O)c3c(Cl)cc(Cl)cc3Cl)C2)CC1 (stereo not shown) [Example 608, N-[4-(dimethylaminophenylmethyl)-cyclohexyl]-2-[1-(2,4,6-trichlorobenzenesulfonyl)-piperidin-3-yloxy]-acetamide] | 78
CN(C)C(c1ccccc1)C1CCC(NC(=O)COC2CCN(S(=O)(=O)c3c(Cl)cc(Cl)cc3Cl)C2)CC1 (stereo not shown) [Example 609, N-[4-(dimethylaminophenylmethyl)-cyclohexyl]-2-[1-(2,4,6-trichlorobenzenesulfonyl)-pyrrolidin-3-yloxy]-acetamide] | 64
CN(C)C(c1ccccc1)C1CCC(NC(=O)COCCN(C)S(=O)(=O)c2c(Cl)cc(Cl)cc2Cl)C1 (stereo not shown) [Example 615, N-[3-(dimethylaminophenylmethyl)-cyclopentyl]-2-{2-[(2,4,6-trichlorobenzenesulfonyl)-methylamino]-ethoxy}-acetamide] | 95
